Reference: article PMC8945686, “Anticancer Effects with Molecular Docking Confirmation of Newly Synthesized Isatin Sulfonamide Molecular Hybrid Derivatives against Hepatic Cancer Cell Lines” (Biomedicines, 2022)
Values joined by “and” are separate entries in the source; they are usually repeats but may differ in a detail not shown here. Identical values can stand only once. Marks after values point to notes of the source that are not given here.

Assays:
HepG2 cells [1] = experiment: MTT cytotoxicity assay on HepG2 cells; type: cell-based; conditions: Homo sapiens; for cytotoxicity at 100 ppm: 48 h, 100 p.p.m (μg/mL), read-out: % Death Rate at 100 p.p.m (μg/mL) HepG2; for IC50: HepG2, 48 h
Method: (§1) MTT-based cell viability assay was carried out to evaluate the antiproliferation potential of the target compounds on HCC cell lines (HepG2 and Huh7). The half maximal inhibitory concentration (IC50) values were calculated against DMSO non-treated HepG2 cells (negative control) and Dox-treated HepG2 cells (positive control). The assay was conducted using 3-(4, 5-di-MethylThiazol-2-yl)-2,5-diphenyl Tetrazolium bromide (MTT) to test cell viability, according to the method described by Mosmann with minor changes. The yellow MTT is reduced in the viable cells to purple formazan. The insoluble formazan is solubilized by DMSO to colored solution measured spectrophotometrically. Briefly, cells were seeded in a 96-well plate at density of 1 × 10^4 cells/well for 24 h in 5% CO2 incubator at 37 °C to allow their adherence. […] After incubation, 20 μL of a 5 mg/mL MTT solution were mixed with the contents of each well, and the plate was incubated for another 4 h. Then, the medium was suctioned, and the wells were washed with PBS. After 2 h of drying, 200 μL of DMSO was added to each well. The plate was set on a shaker to dissolve the formazan crystals. Then, the absorbance was measured spectrophotometrically at 570 nm with a reference wavelength of 630 nm using ELX800 UV universal microplate reader (BioTek Instruments Inc., VT, Santa Clara, CA, USA).
(§2) All experiment conditions were tested in three replicates. The % cell viability was calculated from the following equation: (mean absorbance of treated sample/mean absorbance of negative control sample) × 100. The % death rate = 100 -% cell viability, and the inhibitory concentration of 50% (IC50) was measured from the exponential curve of viability against concentration (dose–response curve).

HepG2 cells [2] = experiment: Annexin V/FITC-PI apoptosis assay; type: cell-based, human; conditions: for %Cell Death Early Apoptosis / %Cell Death Late Apoptosis / %Cell Death Total Apoptosis / Necrosis: HepG2, IC50 of the compound, 24 h (method says 48 h)
Method: Annexin V/PI double staining kit (eBiosciencesDx) was used to detect apoptotic activity of the selected isatin sulfonamide derivatives. The Annexin V corresponding signal provides a very sensitive marker for cellular apoptosis, while PI was used to detect necrotic or late apoptotic cells, identified by the loss of plasma integrity and loss of nuclear membranes.
Briefly, 1 × 10^5 cells/mL of HepG2 cells were seeded into a 6-well plate and incubated at 37 °C, 5% CO2, overnight. […] After time elapsed, trypsinization of cells was carried out. Washing was done by PBS once, followed by fixation using 70% ethanol. Fixed cells were stored at 4 °C for 2 h, then centrifuged at 500× g for 5 min. Again, cells were washed with PBS prior to staining. An amount of 200 μL of the staining solution (annexin V- fluorescein 5-isothiocyanate (FITC) and PI in binding buffer (10 mM HEPES, 140 mM NaCl, and 2.5 mM CaCl2 at pH 7.4)) were added to the cell suspension and incubated at 37 °C for 20 to 30 min in dark and analyzed with a fluorescence-activated cell sorter (FACS) (BD FACSCalibur, BD Biosciences, California, USA). Data were analyzed using ModFit LT v2.0 (Verity Software House, Topsham, Maine, USA).
These plots were divided into four regions corresponding to: • (1) Viable cells, which are negative to both probes (PI/FITC −/−), • (2) Apoptotic cells, which are PI negative and Annexin positive (PI/FITC −/+), • (3) Late apoptotic cells, which are both PI and Annexin positive (PI/FITC +/+), • (4) Necrotic cells, which are PI positive and Annexin negative (PI/FITC+/−).

heparanase = experiment: Heparanase level in HepG2 cell lysate (ELISA); type: cell-based, human; conditions: HepG2 treated at IC50, 48 h
Method: (§3) As previously described, with little modification, HepG2 cells were cultured in T25 flask until they reached 30% confluency. […] After treatment, cells were washed by PBS, trypsinized and centrifuged at 10,000 rpm. The formed pellets were washed twice with PBS and lysed in 1 mL ice-cold radio immunoprecipitation assay (RIPA) lysis buffer (50 mM Tris-HCl, pH 8.0, 150 mM NaCl, 1% Triton X-100, 0.5% sodium deoxycholate, 0.1% sodium dodecyl sulfate) and kept on ice for 20 min. Then, the mixture was centrifuged at 15,000 rpm for 15 min to remove any cell debris. The cell lysate was aliquoted and stored at −80 °C for determination of protein using Pierce BCA Protein Assay Kit (Thermo Fisher Scientific, Waltham/Boston, USA) according to manufacturer’s recommendations and determination of other biochemical parameters including EGFR, urokinase Plasminogen Activator (uPA), B-Cell Lymphoma-2 (Bcl-2), heparanase, and oxidative stress markers (glutathione; GSH and malonaldehyde; MDA).
(§4) Levels of EGFR [37] and heparanase in cell lysate were investigated using commercially available enzyme-linked immunosorbent assay (ELISA) kits supplied by Abcam (Cat. No. ab269558, ab256401, respectively). Levels of uPA [39] were measured using ELISA kit supplied by Creative Diagnostics (New York, USA, Cat. No. DEIA1630). Bcl-2 levels were determined using ELISA kit supplied by Zymed Laboratories, Carlsbad, California (Cat. No. 99-0042). Briefly, standards and samples were added to corresponding 96-well plate coated with suitable antibody. After the washing step, biotinylated anti-human antibody was added to each well. After washing away unbound biotinylated antibody, horseradish peroxidase (HRP)-conjugated streptavidin was pipetted into each well. A peroxidase substrate solution was added to all wells, after washing, and the color developed was proportionate to the amount of EGFR bound. Finally, the stop solution was added and the color intensity was measured at 450 nm.

[3] = In vitro safety/cell viability MTT assay on normal RPE1 cells; type: cell-based, human; conditions: human, RPE1 cells (noncancerous), normal RPE1 cells, MTT
RPE1 cells = experiment: as above; type: cell-based, human; conditions: RPE1, MTT, in words
Huh7 cells = experiment: MTT cytotoxicity assay on Huh7 cells; type: cell-based, human; conditions: for % Death Rate at 100 p.p.m (μg/mL) Huh7: 48 h; for IC50: Homo sapiens, Huh-7, 48 h
Method: as §1, §2

EGFR = EGFR level in HepG2 cell lysate (ELISA); type: cell-based, human; conditions: HepG2 treated at IC50, 48 h
Method: as §3, §4

Row | SMILES | cytotoxicity at 100 ppm (HepG2 cells [1]) [%] | IC50 (HepG2 cells [1]) [µM] | %Cell Death Early Apoptosis (HepG2 cells [2]) [%] | %Cell Death Late Apoptosis (HepG2 cells [2]) [%] | %Cell Death Total Apoptosis (HepG2 cells [2]) | Necrosis (HepG2 cells [2]) [%] | Total apoptosis, fold greater than negative control HepG2 cells (HepG2 cells [2]; HepG2, negative control 1.47%) [fold] | Heparanase level in cell lysate (heparanase) | CC50 at 48 h [3] [µM] | viability at 48 h, 100 p.p.m (μg/mL) [3] [%] | Effect towards the noncancerous cell line (RPE1) (RPE1 cells) | % Death Rate at 100 p.p.m (μg/mL) Huh7 (Huh7 cells) | IC50 (Huh7 cells) [µM] | EGFR level in cell lysate (EGFR)
1 | Cc1ccc(C(=O)CC2(O)C(=O)Nc3ccc(S(=O)(=O)N4CCCCC4)cc32)cc1 (centres unmarked) [Compound 3a, 3-hydroxy-3-(2-oxo-2-(p-tolyl)ethyl)-5-(piperidin-1-ylsulfonyl)indolin-2-one] | 70.1 | ~16.8 | 3.56 | 29.58 | 46.3% and 46.29% | 13.15 | 31.49 | 1262 ± 35 pmol/mg protein and 1262 ± 35 ^a*^,b* pmol/mg protein | > 100 | 74 | non-cytotoxic effect | 100 * % | 40 ± 2.2 | 42 ± 2.3 pmol/mg protein and 42 ± 2.3 ^a*^,b* pmol/mg protein
2 | COc1cccc2c1C(=O)c1c(O)c3c(c(O)c1C2=O)C[C@@](O)(C(=O)CO)C[C@@H]3O[C@H]1C[C@H](N)[C@H](O)[C@H](C)O1 [Doxorubicin, reference compound] | 100 | 21.6 ± 0.81 | 1.85 | 26.27 | 42.38% | 14.26 |  | 902.1 ± 21 ^a* pmol/mg protein |  |  |  | 100% | 11.6 ± 0.9 | 27.5 ± 1.7 ^a* pmol/mg protein
3 | CC(=O)Nc1cccc(C(=O)C=C2C(=O)Nc3ccc(S(=O)(=O)N4CCCCC4)cc32)c1 [Compound 4c, N-(3-(2-(2-oxo-5-(piperidin-1-ylsulfonyl)indolin-3-ylidene)acetyl)phenyl)acetamide] | 95.6 | ~39.7 | 2.88 | 18.08 | 32.0% and 32.02% | 11.06 |  | 1449 ± 12.5 pmol/mg protein and 1449 ± 12.5 ^a*^,b* pmol/mg protein | > 100 | 80.7 | non-cytotoxic effect | 75.60 * % | 35 ± 1.9 | 54 ± 2.4 ^a*^,b* pmol/mg protein
4 | CC(=O)Nc1ccc(C(=O)C=C2C(=O)Nc3ccc(S(=O)(=O)N4CCCCC4)cc32)cc1 [Compound 4b, N-(4-(2-(2-oxo-5-(piperidin-1-ylsulfonyl)indolin-3-ylidene)acetyl)phenyl)acetamide] | 94.2 | ~44.7 | 6.12 | 12.61 | 28.1% and 28.14% | 9.41 |  | 1827 ± 30 pmol/mg protein and 1827 ± 30 ^a*^, b* pmol/mg protein | > 100 | 66.4 | non-cytotoxic effect | 76.00 * % | 53 ± 3 | 87.49 ± 3.4 ^a*^,b* pmol/mg protein
